Data published in ChEMBL document CHEMBL1201862, “PubChem BioAssay data set” (2004).
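How tested: cells in 96-well plates exposed to compound for 48 hours at five concentrations. GI50 marks 50% less growth.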 The source made the active and inactive calls. No stated cut-off is given here; in the data, active = GI50 up to about 1.1 µM and inactive = higher.

Legend:
Assay in all cases: DTP human tumour cell line panel, 48 h
U-251 = tested on: U-251
MCF7 = tested on: MCF7
SF-295 = tested on: SF-295
COLO 205 = tested on: COLO 205
ACHN = tested on: ACHN
SK-MEL-5 = tested on: SK-MEL-5
NCI-H23 = tested on: NCI-H23
NCI-H226 = tested on: NCI-H226
RXF 393 = tested on: RXF 393
Malme-3M = tested on: Malme-3M
HCT-116 = tested on: HCT-116
OVCAR-5 = tested on: OVCAR-5
UO-31 = tested on: UO-31
SK-OV-3 = tested on: SK-OV-3
KM12 = tested on: KM12
HL-60 = tested on: HL-60
SW-620 = tested on: SW-620
TK-10 = tested on: TK-10
HOP-62 = tested on: HOP-62
OVCAR-8 = tested on: OVCAR-8

SMILES	GI50 (U-251)	GI50 (MCF7)	GI50 (SF-295)	GI50 (COLO 205)	GI50 (ACHN)	GI50 (SK-MEL-5)	GI50 (NCI-H23)	GI50 (NCI-H226)	GI50 (RXF 393)	GI50 (Malme-3M)	GI50 (HCT-116)	GI50 (OVCAR-5)	GI50 (UO-31)	GI50 (SK-OV-3)	GI50 (KM12)	GI50 (HL-60)	GI50 (SW-620)	GI50 (TK-10)	GI50 (HOP-62)	GI50 (OVCAR-8)
N#Cc1ccc(C2Oc3ccc(Cl)cc3C=C2[N+](=O)[O-])cc1 (stereo not given)	1.74 µM (inactive)	1.4 µM (inactive)	2.87 µM (inactive)	0.74 µM (active)	1.67 µM (inactive)	1.38 µM (inactive)	1.48 µM (inactive)	10.6 µM (inactive)	4.99 µM (inactive)	2.11 µM (inactive)	0.522 µM (active)	2.09 µM (inactive)	1.63 µM (inactive)	2.27 µM (inactive)	1.9 µM (inactive)	0.841 µM (active)	0.845 µM (active)	1.85 µM (inactive)	1.98 µM (inactive)	> 10 µM (inactive)
CC(O)C(CO)NC(=O)C1CSSCC(NC(=O)C(N)Cc2ccccc2)C(=O)NC(Cc2ccccc2)C(=O)NC(Cc2c[nH]c3ccccc23)C(=O)NC(CCCCN)C(=O)NC(C(C)O)C(=O)N1 (stereo not given)	> 100 µM (inactive)	> 100 µM (inactive)	> 100 µM (inactive)	> 100 µM (inactive)	> 100 µM (inactive)	> 100 µM (inactive)	> 100 µM (inactive)	> 100 µM (inactive)	> 100 µM (inactive)	> 100 µM (inactive)	> 100 µM (inactive)	> 100 µM (inactive)	> 100 µM (inactive)		> 100 µM (inactive)	> 100 µM (inactive)	> 100 µM (inactive)	> 100 µM (inactive)	> 100 µM (inactive)	> 100 µM (inactive)
CNC(=S)Nc1sc2c(c1C#N)CCCC2	> 75 µM (inactive)	> 75 µM (inactive)	> 75 µM (inactive)	> 75 µM (inactive)	> 75 µM (inactive)	> 75 µM (inactive)	> 75 µM (inactive)	> 75 µM (inactive)	> 75 µM (inactive)	> 75 µM (inactive)	> 75 µM (inactive)	> 75 µM (inactive)	> 75 µM (inactive)		> 75 µM (inactive)	> 75 µM (inactive)	> 75 µM (inactive)	> 75 µM (inactive)	> 75 µM (inactive)	> 75 µM (inactive)
Cc1cc2c(cc1C)[n+]([O-])c(C#N)c(Cl)[n+]2[O-]	13.8 µM (inactive)	12.9 µM (inactive)	23.7 µM (inactive)	6.92 µM (inactive)	10.5 µM (inactive)	11.9 µM (inactive)	11.7 µM (inactive)	21.7 µM (inactive)	13.2 µM (inactive)	12.9 µM (inactive)	14.1 µM (inactive)	12.7 µM (inactive)	12 µM (inactive)	16.4 µM (inactive)		7.78 µM (inactive)	11.7 µM (inactive)	14.4 µM (inactive)	19.6 µM (inactive)	15.3 µM (inactive)
CN1CN(c2ccccc2)C2(CCNCC2)C1=O	> 100 µM (inactive)	> 100 µM (inactive)	> 100 µM (inactive)	> 100 µM (inactive)	> 100 µM (inactive)	> 100 µM (inactive)	> 100 µM (inactive)	> 100 µM (inactive)	> 100 µM (inactive)	> 100 µM (inactive)	> 100 µM (inactive)	> 100 µM (inactive)	> 100 µM (inactive)	> 100 µM (inactive)	> 100 µM (inactive)	> 100 µM (inactive)	> 100 µM (inactive)	> 100 µM (inactive)	> 100 µM (inactive)	> 100 µM (inactive)
N#C[C@H](OC1OC(COC2OC(CO)C(O)C(O)C2O)C(O)C(O)C1O)c1ccccc1 (stereo not given in full)	> 250 µM (inactive)	> 250 µM (inactive)	203 µM (inactive)	> 250 µM (inactive)		> 250 µM (inactive)	> 250 µM (inactive)	191 µM (inactive)	> 250 µM (inactive)	> 250 µM (inactive)	> 250 µM (inactive)	> 250 µM (inactive)	> 250 µM (inactive)	> 250 µM (inactive)	> 250 µM (inactive)	158 µM (inactive)	> 250 µM (inactive)		> 250 µM (inactive)	> 250 µM (inactive)
O=C1CCC23CC(C=CC=C12)n1c(=O)n(-c2ccccc2)c(=O)n13 (stereo not given)		10.9 µM (inactive)	> 100 µM (inactive)	> 100 µM (inactive)		> 87.3 µM (inactive)	99.1 µM (inactive)	> 63.4 µM (inactive)	99.3 µM (inactive)	> 100 µM (inactive)	> 71.9 µM (inactive)	> 100 µM (inactive)	> 64.4 µM (inactive)	> 100 µM (inactive)	> 100 µM (inactive)	31 µM (inactive)	43.2 µM (inactive)		> 100 µM (inactive)	> 100 µM (inactive)
SC1=Nc2ccccc2-c2nc(-c3ccccc3)cc(-c3ccc(Br)cc3)c2C1	0.982 µM (active)	4.59 µM (inactive)	1.89 µM (inactive)	2.66 µM (inactive)		8.3 µM (inactive)	2.65 µM (inactive)	3.18 µM (inactive)	1.7 µM (inactive)	2.59 µM (inactive)	1.64 µM (inactive)	2.81 µM (inactive)	1.57 µM (inactive)	0.897 µM (active)	12 µM (inactive)	18.4 µM (inactive)	2.4 µM (inactive)		1.31 µM (inactive)	1.1 µM (active)
